Results from patent US11292801B2, “Calpain modulators and therapeutic uses thereof” (Blade Therapeutics, Inc., priority 2016, dated 2022).

Tests used:
[1] = target: T1, Human Calpain 2/NS1 (Homo sapiens, UniProt P17655); assay: Biochemical inhibition of calpain 2, continuous fluorescence (FRET substrate) assay; settings: mean, read-out: Human Calpain 2/NS1 IC50 (nM)_MEAN
T1 sequence (P17655 1-700): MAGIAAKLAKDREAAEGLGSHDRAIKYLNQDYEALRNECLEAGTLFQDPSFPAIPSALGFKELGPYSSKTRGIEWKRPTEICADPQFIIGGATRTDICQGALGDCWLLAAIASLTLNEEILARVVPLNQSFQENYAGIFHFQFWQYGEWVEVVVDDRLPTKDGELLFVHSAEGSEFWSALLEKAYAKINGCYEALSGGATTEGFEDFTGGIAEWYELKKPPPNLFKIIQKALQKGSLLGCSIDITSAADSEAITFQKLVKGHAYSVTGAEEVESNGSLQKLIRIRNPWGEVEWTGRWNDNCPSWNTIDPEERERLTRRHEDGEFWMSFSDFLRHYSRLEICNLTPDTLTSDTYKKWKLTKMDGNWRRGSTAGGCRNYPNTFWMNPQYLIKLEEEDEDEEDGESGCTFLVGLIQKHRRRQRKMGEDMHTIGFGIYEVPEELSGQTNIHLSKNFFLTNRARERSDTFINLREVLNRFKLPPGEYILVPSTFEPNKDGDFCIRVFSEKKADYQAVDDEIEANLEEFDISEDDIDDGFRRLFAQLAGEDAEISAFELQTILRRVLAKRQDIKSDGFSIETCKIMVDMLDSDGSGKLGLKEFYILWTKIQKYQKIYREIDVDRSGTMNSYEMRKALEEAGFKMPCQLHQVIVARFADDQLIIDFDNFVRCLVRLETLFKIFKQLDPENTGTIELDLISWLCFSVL
T1 sequence (P04632 1-268 partner): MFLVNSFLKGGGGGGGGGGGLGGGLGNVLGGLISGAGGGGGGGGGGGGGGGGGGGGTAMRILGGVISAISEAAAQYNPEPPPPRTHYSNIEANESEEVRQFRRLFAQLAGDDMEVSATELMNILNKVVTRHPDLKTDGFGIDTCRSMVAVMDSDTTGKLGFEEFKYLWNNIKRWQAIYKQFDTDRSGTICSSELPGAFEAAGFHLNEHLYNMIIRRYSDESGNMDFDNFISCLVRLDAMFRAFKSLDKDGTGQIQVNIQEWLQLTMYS
Summary of the method: (§1)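 Continuous FRET assay with 5-FAM/QXL520 peptide substrate in 50 mM Tris pH ~7.5, 100 mM NaCl, 1 mM DTT. Enzyme preincubated with inhibitor at 25C; reaction started with substrate plus CaCl2, read at 490/520 nm for 10 min. Rates from slopes over 1-5 min, IC50 from 4-parameter logistic fit.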

[2] = target: T2, Human Calpain 9/NS1 (Homo sapiens, UniProt O14815); assay: Biochemical inhibition of calpain 9, continuous fluorescence (FRET substrate) assay; settings: mean, read-out: Human Calpain 9/NS1 IC50 (nM)_MEAN
T2 sequence (O14815 1-690): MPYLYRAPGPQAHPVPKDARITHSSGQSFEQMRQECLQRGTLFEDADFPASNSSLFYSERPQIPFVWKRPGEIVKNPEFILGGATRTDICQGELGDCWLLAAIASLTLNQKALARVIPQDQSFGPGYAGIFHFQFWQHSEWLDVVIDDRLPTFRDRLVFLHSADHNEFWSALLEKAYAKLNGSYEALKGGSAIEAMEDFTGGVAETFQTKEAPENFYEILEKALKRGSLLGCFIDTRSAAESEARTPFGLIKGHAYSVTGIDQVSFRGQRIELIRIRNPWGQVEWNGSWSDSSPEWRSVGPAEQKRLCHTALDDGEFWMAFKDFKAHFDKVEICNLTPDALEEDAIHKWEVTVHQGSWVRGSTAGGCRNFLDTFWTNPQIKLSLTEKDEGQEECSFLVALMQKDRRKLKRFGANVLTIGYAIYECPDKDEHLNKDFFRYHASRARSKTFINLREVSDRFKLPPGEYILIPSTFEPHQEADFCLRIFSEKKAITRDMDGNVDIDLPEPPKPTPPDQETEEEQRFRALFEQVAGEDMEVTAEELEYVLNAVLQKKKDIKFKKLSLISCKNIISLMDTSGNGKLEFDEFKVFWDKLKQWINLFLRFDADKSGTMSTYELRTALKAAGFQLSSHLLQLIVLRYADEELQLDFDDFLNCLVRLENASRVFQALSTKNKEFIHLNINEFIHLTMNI
T2 sequence (P04632 1-268 partner): T1 sequence (P04632 1-268 partner)
Summary of the method: as §1

[3] = target: T3, Human Calpain 1/NS1 (Homo sapiens, UniProt P07384); assay: Biochemical inhibition of calpain 1, continuous fluorescence (FRET substrate) assay; settings: mean, read-out: Human Calpain 1/NS1 IC50 (nM)_MEAN
T3 sequence (P07384 1-714): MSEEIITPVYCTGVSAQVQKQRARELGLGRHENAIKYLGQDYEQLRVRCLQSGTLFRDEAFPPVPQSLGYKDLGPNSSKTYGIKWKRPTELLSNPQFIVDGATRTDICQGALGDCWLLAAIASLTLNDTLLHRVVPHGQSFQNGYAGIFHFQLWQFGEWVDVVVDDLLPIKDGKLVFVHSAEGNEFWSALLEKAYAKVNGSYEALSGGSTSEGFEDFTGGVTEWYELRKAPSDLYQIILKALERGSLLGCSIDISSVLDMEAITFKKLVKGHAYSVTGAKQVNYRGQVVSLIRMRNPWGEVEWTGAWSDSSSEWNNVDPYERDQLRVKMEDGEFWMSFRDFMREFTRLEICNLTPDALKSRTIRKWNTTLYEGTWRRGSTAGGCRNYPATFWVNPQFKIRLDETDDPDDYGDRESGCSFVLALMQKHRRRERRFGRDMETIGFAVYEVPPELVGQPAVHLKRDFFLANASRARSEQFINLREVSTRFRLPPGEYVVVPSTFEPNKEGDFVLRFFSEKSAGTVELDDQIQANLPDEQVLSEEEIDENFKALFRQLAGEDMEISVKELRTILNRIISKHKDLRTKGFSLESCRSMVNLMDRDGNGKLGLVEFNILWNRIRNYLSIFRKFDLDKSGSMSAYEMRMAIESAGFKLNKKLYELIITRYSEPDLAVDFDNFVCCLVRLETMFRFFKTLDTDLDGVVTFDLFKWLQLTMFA
T3 sequence (P04632 1-268 partner): T1 sequence (P04632 1-268 partner)
Summary of the method: as §1

IC50 [1] | IC50 [2] | IC50 [3] | SMILES
> 10000 nM | > 10000 nM | > 10000 nM | C[C@H](NC(=O)C(=O)C1CCCCOCCOCc2ccccc2C(=O)N1)c1cccnc1 (stereo partly drawn) [Compound 126, 2-Oxo-2-(12-oxo-1,3,4,6,7,8,9,10,11,12-decahydrobenzo[f][1,4]dioxa[9]aza-cyclotetradecin-10-yl)-N—((S)-1-(pyridin-3-yl)ethyl)acetamide]
> 10000 nM | > 10000 nM | > 10000 nM | C[C@@H](NC(=O)C(=O)C1CCCCOCCOCc2ccccc2C(=O)N1)c1cccnc1 (stereo partly drawn) [Compound 127, 2-Oxo-2-(12-oxo-1,3,4,6,7,8,9,10,11,12-decahydrobenzo[f][1,4]dioxa[9]aza-cyclotetradecin-10-yl)-N—((R)-1-(pyridin-3-yl)ethyl)acetamide]
< 3000 nM | < 3000 nM | 3000 to 10000 nM | O=C(NCCc1ccc(Cl)cc1)C(=O)[C@@H]1CCCCOCCOCc2ccccc2C(=O)N1 [Compound 128, (S)—N-(4-chlorophenethyl)-2-oxo-2-(12-oxo-1,3,4,6,7,8,9,10,11,12-decahydrobenzo[f][1,4]dioxa[9]azacyclotetradecin-10-yl)acetamide]
< 3000 nM | < 3000 nM | < 3000 nM | NC(=O)C(=O)[C@@H]1CCCCCOc2ccnc(n2)-c2ccccc2C(=O)N1 [Compound 129, (S)-2-oxo-2-(3-oxo-11-oxa-4-aza-1(2,4)-pyrimidina-2(1,2)-benzena-cycloundecaphane-5-yl)acetamide]
< 3000 nM | < 3000 nM | < 3000 nM | NC(=O)C(=O)[C@@H]1CCCCCOc2cccc(c2)-c2ncccc2C(=O)N1 [Compound 130, (S)-2-oxo-2-(11-oxo-3-oxa-10-aza-1(2,3)-pyridina-2(1,3)-benzena-cycloundecaphane-9-yl)acetamide]
< 3000 nM | < 3000 nM | < 3000 nM | O=C[C@@H]1CCCCCCOc2ccnc(c2)-c2ccccc2C(=O)N1 [Compound 131, (S)-3-oxo-12-oxa-4-aza-1(2,4)-pyridina-2(1,2)-benzenacyclododecaphane-5-carbaldehyde]
< 3000 nM | < 3000 nM | < 3000 nM | NC(=O)C(=O)[C@@H]1CCCCCCOc2ccnc(c2)-c2ccccc2C(=O)N1 [Compound 132, (S)-2-oxo-2-(3-oxo-12-oxa-4-aza-1(2,4)-pyridina-2(1,2)-benzenacyclododecaphane-5-yl)acetamide]
< 3000 nM | < 3000 nM | < 3000 nM | O=C[C@@H]1CCCCCCOc2ccnc(n2)-c2ccccc2C(=O)N1 [Compound 133, (S)-3-oxo-12-oxa-4-aza-1(2,4)-pyrimidina-2(1,2)-benzenacyclododecaphane-5-carbaldehyde]
< 3000 nM | < 3000 nM | < 3000 nM | NC(=O)C(=O)[C@@H]1CCCCCCOc2ccnc(n2)-c2ccccc2C(=O)N1 [Compound 134, (S)-2-oxo-2-(3-oxo-12-oxa-4-aza-1(2,4)-pyrimidina-2(1,2)-benzenacyclododecaphane-5-yl)acetamide]
> 10000 nM | > 10000 nM | > 10000 nM | CON(C)C(=O)[C@@H]1C/C=C/CCOc2ccnc(n2)-c2ccccc2C(=O)N1 [Compound 135, (S,E)-N-methoxy-N-methyl-3-oxo-11-oxa-4-aza-1(2,4)-pyrimidina-2(1,2)-benzenacycloundecaphan-7-ene-5-carboxamide]
> 10000 nM | > 10000 nM | > 10000 nM | CON(C)C(=O)[C@@H]1C/C=C\CCOc2ccnc(n2)-c2ccccc2C(=O)N1 [Compound 136, (S,Z)—N-methoxy-N-methyl-3-oxo-11-oxa-4-aza-1(2,4)-pyrimidina-2(1,2)-benzenacycloundecaphan-7-ene-5-carboxamide]
< 3000 nM | < 3000 nM | < 3000 nM | NC(=O)C(=O)[C@@H]1C/C=C/CCOc2ccnc(n2)-c2ccccc2C(=O)N1 [Compound 137, (S,E)-2-oxo-2-(3-oxo-11-oxa-4-aza-1(2,4)-pyrimidina-2(1,2)-benzenacycloundecaphan-7-en-5-yl)acetamide]
< 3000 nM | < 3000 nM | < 3000 nM | NC(=O)C(=O)[C@@H]1C/C=C\CCOc2ccnc(n2)-c2ccccc2C(=O)N1 [Compound 138, (S,Z)-2-oxo-2-(3-oxo-11-oxa-4-aza-1(2,4)-pyrimidina-2(1,2)-benzenacycloundecaphan-7-en-5-yl)acetamide]
< 3000 nM | < 3000 nM | < 3000 nM | O=C[C@@H]1CCCCCOc2ccnc(n2)-c2ccccc2C(=O)N1 [Compound 139, (S)-3-oxo-11-oxa-4-aza-1(2,4)-pyrimidina-2(1,2)-benzena-cycloundecaphane-5-carbaldehyde]
< 3000 nM | < 3000 nM | < 3000 nM | NC(=O)C(=O)[C@@H]1CCCCCOc2cccc(c2)-c2n[nH]cc2C(=O)N1 [Compound 140, (S)-2-oxo-2-(11-oxo-1H-3-oxa-10-aza-1(3,4)-pyrazola-2(1,3)-benzena-cycloundecaphane-9-yl)acetamide]
< 3000 nM | < 3000 nM | < 3000 nM | Cc1cc2n(n1)-c1cccc(c1)OCCCCC[C@@H](C(=O)C(N)=O)NC2=O [Compound 141, (S)-2-oxo-2-(11-oxo-1^1H-3-oxa-10-aza-1(3,4)-pyrazola-2(1,3)-benzena-cycloundecaphane-9-yl)acetamide]
> 10000 nM | < 3000 nM | > 10000 nM | Cn1cc2c(n1)-c1cccc(c1)OCCCCC[C@@H](C(=O)C(N)=O)NC2=O [Compound 142, (S)-2-(1′-methyl-11-oxo-1^1H-3-oxa-10-aza-1(3,4)-pyrazola-2(1,3)-benzenacycloundecaphane-9-yl)-2-oxoacetamide]
< 3000 nM | < 3000 nM | < 3000 nM | C/C1=C\C[C@@H](C=O)NC(=O)c2cc(C)nn2-c2cccc(c2)OCC1 [Compound 144, (S,E)-1^3,6-dimethyl-11-oxo-1^1H-3-oxa-10-aza-1(1,5)-pyrazola-2(1,3)-benzenacycloundecaphan-6-ene-9-carbaldehyde]
